Measurements: ChEMBL document CHEMBL5120859, “Optimization of 4-arylthiophene-3-carboxylic acid derivatives as inhibitors of ANO1: Lead optimization studies toward their analgesic efficacy for inflammatory pain” (Eur J Med Chem, 2022)
Active and inactive are the calls of the source. The rule behind the calls is not given here.

Legend:
[1] = AUC (0 to t) in C57BL/6 mouse at 40 mg/kg,IG measured upto 24 hrs by HPLC-MS/MS analysis; format: ADME, organism-based; parameters: dose 40 mg/kg, time < 24 hrs, route ig; details: in vivo, po
[2] = target: Sodium channel protein type 7 subunit alpha (Homo sapiens) (UniProt Q01118); assay: Inhibition of Nav1.7 (unknown origin) in half-inactivated condition at 30 uM by whole cell patch clamp electrophysiology relative to control
[3] = system: Mus musculus; assay: Analgesic activity in C57BL/6 mouse model of CFA-induced mechanical hyperalgesia assessed as […] at 40 to 80 mg/kg,po measured after 12 hrs by Von Frey test; format: functional, organism-based; details: dose 40-80 mg/kg
[4] = target: T1, Anoctamin-1 (Homo sapiens) (UniProt Q5XXA6); assay: Inhibition of YFP tagged ANO1 (unknown origin) expressed in FRT cells at 30 uM incubated for 24 hrs by whole cell patch clamp electrophysiology relative to control; format: cell-based
T1 sequence (whole entry): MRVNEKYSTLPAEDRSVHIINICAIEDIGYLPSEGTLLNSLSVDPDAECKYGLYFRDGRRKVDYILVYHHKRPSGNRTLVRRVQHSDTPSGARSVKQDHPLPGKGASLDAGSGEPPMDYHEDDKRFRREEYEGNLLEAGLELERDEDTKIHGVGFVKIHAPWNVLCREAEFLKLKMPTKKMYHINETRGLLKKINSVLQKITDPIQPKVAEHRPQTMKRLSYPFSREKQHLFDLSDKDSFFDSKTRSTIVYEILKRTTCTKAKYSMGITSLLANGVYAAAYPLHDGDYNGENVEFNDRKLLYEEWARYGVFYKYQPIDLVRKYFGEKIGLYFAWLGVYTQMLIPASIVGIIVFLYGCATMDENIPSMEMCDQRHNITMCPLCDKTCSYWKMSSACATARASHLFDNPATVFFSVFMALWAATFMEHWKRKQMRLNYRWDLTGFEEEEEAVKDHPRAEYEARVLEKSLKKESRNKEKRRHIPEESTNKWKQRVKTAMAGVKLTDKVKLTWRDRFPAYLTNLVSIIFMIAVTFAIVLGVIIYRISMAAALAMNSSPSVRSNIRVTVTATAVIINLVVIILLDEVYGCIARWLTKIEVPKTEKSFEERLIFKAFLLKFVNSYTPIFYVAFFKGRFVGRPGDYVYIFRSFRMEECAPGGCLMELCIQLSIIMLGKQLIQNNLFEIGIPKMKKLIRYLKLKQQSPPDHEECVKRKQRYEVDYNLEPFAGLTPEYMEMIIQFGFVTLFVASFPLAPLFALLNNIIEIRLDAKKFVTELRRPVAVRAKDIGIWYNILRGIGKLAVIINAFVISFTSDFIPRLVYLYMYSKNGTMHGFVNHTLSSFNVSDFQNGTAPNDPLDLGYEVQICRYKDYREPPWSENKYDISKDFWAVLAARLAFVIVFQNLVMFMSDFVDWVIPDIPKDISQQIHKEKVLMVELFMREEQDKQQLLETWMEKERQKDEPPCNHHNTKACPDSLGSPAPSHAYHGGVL

[5] = Plasma concentration in C57BL/6 mouse at 40 mg/kg,IG measured after 24 hrs by HPLC analysis; format: ADME, organism-based; details: po
[6] = target: Transient receptor potential cation channel subfamily V member 1 (Homo sapiens) (UniProt Q8NER1); assay: Inhibition of TRPV1 (unknown origin) at a holding potential +100 mV at 30 uM by whole cell patch clamp electrophysiology relative to control
Transient receptor potential cation channel subfamily V member 1 (Homo sapiens), sequence (Q8NER1 whole entry): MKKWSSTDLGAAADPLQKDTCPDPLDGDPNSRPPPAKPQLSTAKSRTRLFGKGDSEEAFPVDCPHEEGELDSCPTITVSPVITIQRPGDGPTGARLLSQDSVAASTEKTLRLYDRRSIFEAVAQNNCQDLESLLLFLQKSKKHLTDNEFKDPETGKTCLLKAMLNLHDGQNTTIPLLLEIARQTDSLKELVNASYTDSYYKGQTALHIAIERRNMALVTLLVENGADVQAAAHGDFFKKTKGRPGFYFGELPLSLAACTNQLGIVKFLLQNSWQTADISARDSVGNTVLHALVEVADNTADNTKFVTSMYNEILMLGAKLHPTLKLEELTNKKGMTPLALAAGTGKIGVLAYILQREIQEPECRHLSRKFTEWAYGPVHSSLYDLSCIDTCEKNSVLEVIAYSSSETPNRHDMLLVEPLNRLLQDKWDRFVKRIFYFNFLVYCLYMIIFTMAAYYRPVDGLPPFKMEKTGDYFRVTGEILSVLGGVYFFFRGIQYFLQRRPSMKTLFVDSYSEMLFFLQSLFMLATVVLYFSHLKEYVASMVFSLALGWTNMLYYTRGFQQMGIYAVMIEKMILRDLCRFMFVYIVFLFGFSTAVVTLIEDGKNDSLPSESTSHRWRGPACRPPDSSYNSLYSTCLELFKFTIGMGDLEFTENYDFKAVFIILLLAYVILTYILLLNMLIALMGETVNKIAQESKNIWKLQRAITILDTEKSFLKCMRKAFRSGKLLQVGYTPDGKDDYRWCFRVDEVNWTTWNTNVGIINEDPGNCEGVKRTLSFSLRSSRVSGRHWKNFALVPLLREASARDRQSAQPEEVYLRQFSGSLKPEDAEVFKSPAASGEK

[7] = MRT (0 to t) in C57BL/6 mouse at 80 mg/kg,IG measured upto 24 hrs by HPLC-MS/MS analysis; format: ADME, organism-based; details: in vivo, po
[8] = Ratio of drug concentration in brain to plasma in C57BL/6 mouse at 40 mg/kg,IG measured after 0.25 hrs by HPLC analysis; format: ADME, organism-based; details: po
[9] = target: T2, Anoctamin-1 (Homo sapiens, UniProt Q5XXA6); assay: Inhibition of YFP tagged ANO1 (unknown origin) expressed in FRT cells incubated for 24 hrs by fluorescence plate reader assay; format: cell-based
T2 sequence (Q5XXA6 whole entry): T1 sequence (whole entry)

[10] = Toxicity in C57BL/6 mouse model of capsaicin-induced allodynia assessed as increase in body temperature at 40 to 80 mg/kg,po; format: organism-based; details: in vivo, dose 40-80 mg/kg
[11] = Brain concentration in C57BL/6 mouse at 40 mg/kg,IG measured after 24 hrs by HPLC analysis; format: ADME, organism-based; details: po, read-out: Ct
[12] = Acute toxicity in C57BL/6 mouse assessed as animal survival at 1000 mg/kg,po measured after 24 hrs; format: organism-based; details: in vivo
[13] = system: Mus musculus; assay: Analgesic activity in C57BL/6 mouse model of formalin-induced allodynia assessed as reduction on foot licking pain response at 40 to 80 mg/kg,po measured at 15 to 60 mins; format: functional, organism-based; details: dose 40-80 mg/kg, time 15-60 min, DDE = dose-dependent effect
[14] = system: Mus musculus; assay: Analgesic activity in C57BL/6 mouse model of CFA-induced mechanical hyperalgesia assessed as […] at 40 to 80 mg/kg,po measured after 7 days by Von Frey test; format: functional, organism-based; details: dose 40-80 mg/kg, time 7.0 day
[15] = target: Voltage-gated inwardly rectifying potassium channel KCNH2 (Homo sapiens, UniProt Q12809); assay: Cardiotoxicity against human ERG expressed in HEK293 cells by patch clamp assay; format: toxicity, cell-based
Voltage-gated inwardly rectifying potassium channel KCNH2, sequence (Q12809 whole entry): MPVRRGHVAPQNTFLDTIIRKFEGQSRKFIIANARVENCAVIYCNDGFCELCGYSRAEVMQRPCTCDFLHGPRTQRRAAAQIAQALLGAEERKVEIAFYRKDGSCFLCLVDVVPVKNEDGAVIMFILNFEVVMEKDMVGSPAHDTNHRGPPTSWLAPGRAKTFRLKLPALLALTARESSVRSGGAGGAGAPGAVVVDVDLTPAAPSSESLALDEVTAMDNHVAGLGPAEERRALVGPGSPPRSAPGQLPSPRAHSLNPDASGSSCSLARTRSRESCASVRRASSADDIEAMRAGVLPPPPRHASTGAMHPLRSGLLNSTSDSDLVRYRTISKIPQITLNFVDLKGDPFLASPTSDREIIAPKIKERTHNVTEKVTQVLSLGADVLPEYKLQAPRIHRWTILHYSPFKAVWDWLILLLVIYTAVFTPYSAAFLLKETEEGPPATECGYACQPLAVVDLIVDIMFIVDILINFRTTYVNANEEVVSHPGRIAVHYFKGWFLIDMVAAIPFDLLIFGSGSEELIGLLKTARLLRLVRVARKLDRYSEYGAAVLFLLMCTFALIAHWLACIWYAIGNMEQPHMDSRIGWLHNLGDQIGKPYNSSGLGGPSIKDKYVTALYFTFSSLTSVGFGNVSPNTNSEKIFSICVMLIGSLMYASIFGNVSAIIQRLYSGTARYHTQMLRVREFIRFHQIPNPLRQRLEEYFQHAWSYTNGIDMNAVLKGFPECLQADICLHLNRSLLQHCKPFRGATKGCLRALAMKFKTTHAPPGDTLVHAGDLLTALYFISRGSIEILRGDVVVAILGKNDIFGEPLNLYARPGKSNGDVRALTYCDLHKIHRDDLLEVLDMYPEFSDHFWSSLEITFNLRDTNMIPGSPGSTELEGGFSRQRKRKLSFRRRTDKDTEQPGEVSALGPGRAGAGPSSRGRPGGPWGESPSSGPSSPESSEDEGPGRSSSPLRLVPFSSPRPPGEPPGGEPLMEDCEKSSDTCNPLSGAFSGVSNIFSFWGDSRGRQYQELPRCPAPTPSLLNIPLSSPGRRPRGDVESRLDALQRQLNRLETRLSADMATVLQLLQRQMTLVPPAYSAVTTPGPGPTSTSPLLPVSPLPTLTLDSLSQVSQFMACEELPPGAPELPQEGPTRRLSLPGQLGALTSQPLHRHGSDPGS

[16] = Clearance in C57BL/6 mouse at 40 mg/kg,iv measured upto 24 hrs by HPLC-MS/MS analysis; format: ADME, organism-based; details: in vivo
[17] = AUC (0 to t) in C57BL/6 mouse at 40 mg/kg,iv measured upto 24 hrs by HPLC-MS/MS analysis; format: ADME, organism-based; parameters: dose 40 mg/kg, time < 24 hrs, route iv; details: in vivo
[18] = Tmax in C57BL/6 mouse at 40 mg/kg,IG measured upto 24 hrs by HPLC-MS/MS analysis; format: ADME, organism-based; details: in vivo, po
[19] = Volume of distribution at steady state in C57BL/6 mouse at 40 mg/kg,iv measured upto 24 hrs by HPLC-MS/MS analysis; format: ADME, organism-based; details: in vivo, read-out: Vdss
[20] = Tmax in C57BL/6 mouse at 80 mg/kg,IG measured upto 24 hrs by HPLC-MS/MS analysis; format: ADME, organism-based; details: in vivo, po
[21] = Tmax in C57BL/6 mouse at 40 mg/kg,iv measured upto 24 hrs by HPLC-MS/MS analysis; format: ADME, organism-based; details: in vivo
[22] = MRT (0 to t) in C57BL/6 mouse at 40 mg/kg,iv measured upto 24 hrs by HPLC-MS/MS analysis; format: ADME, organism-based; details: in vivo
[23] = Cytotoxicity against human HEK293 cells assessed as inhibition of cell growth at 30 uM incubated for 72 hrs by CCK-8 assay; format: toxicity, cell-based
[24] = Bioavailability in C57BL/6 mouse at 40 mg/kg,IG measured upto 24 hrs by HPLC-MS/MS analysis; format: ADME, organism-based; details: in vivo, po
[25] = target: Voltage-dependent N-type calcium channel subunit alpha-1B (Homo sapiens) (UniProt Q00975); assay: Inhibition of Cav2.2 (unknown origin) at a holding potential +10 mV at 30 uM by whole cell patch clamp electrophysiology relative to control
Voltage-dependent N-type calcium channel subunit alpha-1B (Homo sapiens), sequence (Q00975 whole entry, looked up): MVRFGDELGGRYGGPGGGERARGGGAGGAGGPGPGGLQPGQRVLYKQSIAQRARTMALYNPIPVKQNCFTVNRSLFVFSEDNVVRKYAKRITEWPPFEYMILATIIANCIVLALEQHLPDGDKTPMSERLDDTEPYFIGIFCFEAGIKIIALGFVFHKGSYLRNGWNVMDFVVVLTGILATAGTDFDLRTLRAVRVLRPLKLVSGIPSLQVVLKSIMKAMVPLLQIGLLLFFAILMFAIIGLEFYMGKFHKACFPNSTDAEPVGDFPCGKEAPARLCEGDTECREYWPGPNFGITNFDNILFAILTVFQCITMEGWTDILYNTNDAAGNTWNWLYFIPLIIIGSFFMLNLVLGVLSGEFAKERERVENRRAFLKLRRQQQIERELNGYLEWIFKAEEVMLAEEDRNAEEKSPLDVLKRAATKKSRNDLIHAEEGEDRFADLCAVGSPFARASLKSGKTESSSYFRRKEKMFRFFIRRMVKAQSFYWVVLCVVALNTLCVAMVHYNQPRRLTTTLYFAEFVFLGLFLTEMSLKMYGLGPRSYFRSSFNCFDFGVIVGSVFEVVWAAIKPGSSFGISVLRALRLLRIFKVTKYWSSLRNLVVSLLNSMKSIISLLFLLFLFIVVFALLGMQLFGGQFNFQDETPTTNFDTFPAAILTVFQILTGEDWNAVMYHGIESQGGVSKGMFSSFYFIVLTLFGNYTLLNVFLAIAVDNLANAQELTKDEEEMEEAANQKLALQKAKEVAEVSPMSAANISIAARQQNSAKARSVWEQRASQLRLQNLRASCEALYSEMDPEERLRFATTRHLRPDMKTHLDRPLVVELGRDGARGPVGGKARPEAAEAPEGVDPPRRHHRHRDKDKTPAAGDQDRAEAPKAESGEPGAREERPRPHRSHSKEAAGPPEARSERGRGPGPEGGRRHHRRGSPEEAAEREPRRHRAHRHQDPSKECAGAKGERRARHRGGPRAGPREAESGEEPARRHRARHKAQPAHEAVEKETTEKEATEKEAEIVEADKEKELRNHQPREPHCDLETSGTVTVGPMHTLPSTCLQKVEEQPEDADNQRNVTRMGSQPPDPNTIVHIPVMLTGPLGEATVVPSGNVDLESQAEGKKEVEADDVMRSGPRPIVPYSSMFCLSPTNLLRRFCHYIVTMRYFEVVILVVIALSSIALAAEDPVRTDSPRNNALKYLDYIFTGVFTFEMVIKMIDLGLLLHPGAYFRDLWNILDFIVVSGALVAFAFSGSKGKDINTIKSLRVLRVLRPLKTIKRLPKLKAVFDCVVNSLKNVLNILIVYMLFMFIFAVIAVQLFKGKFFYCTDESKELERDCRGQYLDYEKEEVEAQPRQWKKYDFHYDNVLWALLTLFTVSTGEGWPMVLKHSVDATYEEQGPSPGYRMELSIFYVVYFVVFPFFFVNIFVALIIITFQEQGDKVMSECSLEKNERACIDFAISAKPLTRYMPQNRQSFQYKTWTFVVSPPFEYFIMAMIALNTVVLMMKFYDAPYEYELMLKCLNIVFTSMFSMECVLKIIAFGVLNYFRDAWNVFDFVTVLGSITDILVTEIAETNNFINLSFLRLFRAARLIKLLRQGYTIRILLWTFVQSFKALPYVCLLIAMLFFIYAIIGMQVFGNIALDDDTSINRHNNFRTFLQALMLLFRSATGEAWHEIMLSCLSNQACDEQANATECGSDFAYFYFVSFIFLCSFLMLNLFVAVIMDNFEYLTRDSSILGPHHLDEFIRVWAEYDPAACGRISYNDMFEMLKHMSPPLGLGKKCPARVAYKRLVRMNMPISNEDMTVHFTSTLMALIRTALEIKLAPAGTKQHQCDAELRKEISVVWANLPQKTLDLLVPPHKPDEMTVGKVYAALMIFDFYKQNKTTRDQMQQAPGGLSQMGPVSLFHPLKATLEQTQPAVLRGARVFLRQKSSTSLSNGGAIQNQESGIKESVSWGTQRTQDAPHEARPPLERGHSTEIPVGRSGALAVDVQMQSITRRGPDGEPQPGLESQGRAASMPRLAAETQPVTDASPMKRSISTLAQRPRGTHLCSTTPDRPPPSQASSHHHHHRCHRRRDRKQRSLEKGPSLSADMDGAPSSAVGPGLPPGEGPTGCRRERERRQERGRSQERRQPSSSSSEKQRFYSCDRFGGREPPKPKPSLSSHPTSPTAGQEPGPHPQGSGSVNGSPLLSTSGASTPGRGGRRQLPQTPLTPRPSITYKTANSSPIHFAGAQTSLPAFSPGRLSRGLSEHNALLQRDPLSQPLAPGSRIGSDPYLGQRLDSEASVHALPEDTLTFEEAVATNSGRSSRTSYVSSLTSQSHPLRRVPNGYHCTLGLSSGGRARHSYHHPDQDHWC

[26] = Cmax in C57BL/6 mouse at 40 mg/kg,iv measured upto 24 hrs by HPLC-MS/MS analysis; format: ADME, organism-based; parameters: time < 24 hrs, dose 40 mg/kg, route iv; details: in vivo

## O=C(Nc1scc(-c2ccc(Cl)cc2)c1C(=O)O)c1cc(F)ccc1F
[1]
  AUC(0-t) at 24 h: 265 µg·h/mL
[2]
  inhibition: 6.5%
[3]
  Activity: Active
[4]
  inhibition: 95.6%
[5]
  concentration at 24 h: 1.67 µg/mL
[6]
  inhibition: 17%
[7]
  MRT last at 24 h: 456 min
[8]
  Ratio: 1.5%
[9]
  IC50: 24 nM
[10]
  Activity: Non-Toxic
[11]
  concentration at 24 h: 74.8 ng/g
[12]
  Activity: Non-Toxic
[13]
  Activity: Dde
[14]
  Activity: Active
[15]
  IC50: > 30000 nM
[16]
  clearance: 1.73 mL/min/kg
[17]
  AUC(0-t) at 24 h: 350 µg·h/mL
[18]
  Tmax: 15 min
[19]
  Vd: 0.8 L/kg
[20]
  Tmax: 10.2 min
[21]
  Tmax: 4.8 min
[22]
  MRT last at 24 h: 294 min
[23]
  inhibition at 72 h, 30 µM: < 10%
[24]
  bioavailability: 75.7%
[25]
  inhibition: 32%
[26]
  Cmax: 183 µg/mL
